Targets include FhuA ΔC/Δ7L_30N (Escherichia coli, UniProt P06971); FhuA ΔC/Δ5L (Escherichia coli, UniProt P06971, DEL561-566/INS560[…], form not given); FhuA ΔC/Δ5L_25N (Escherichia coli, UniProt P06971).
Common to all, as to type: binding, E. coli
The next test concerns the target OmpG (Escherichia coli, UniProt P76045, D245C). The experiment in a line: biochemical.
[1] abbreviates: maximum anisotropy at detergent concentrations above the CMC, 200 mM NaCl, 50 mM HEPES, pH 7.4.
The mark [2] stands for this setting: minimum anisotropy, extrapolated for the lowest detergent concentration, 200 mM NaCl, 50 mM HEPES, pH 7.4.
Setting [3] is: rotational diffusion coefficient under desolvation conditions.
Where [4] appears, read: rotational diffusion coefficient under solvation conditions.
Setting [5] is: calculated at the midpoint of the dissociation phase.
Setting [6] is: decrease in hydrodynamic radius as a result of detergent desolvation.
Where [7] appears, read: four-parameter Hill fit, 200 mM NaCl, 50 mM HEPES, pH 7.4, 24°C.
[8] abbreviates: maximum hydrodynamic radius of the proteomicelle.
Setting [9] is: read-out: Kd (apparent dissociation constant), midpoint of dose-dependent dissociation phase, 200 mM NaCl, 50 mM HEPES, pH 7.4, 24°C.
[10] abbreviates: anisotropy determined in 6 M Gdm-HCl.

Values joined by “and” are separate entries in the source; they are usually repeats but may differ in a detail not shown here. Equal values may be shown once. Read-outs that look alike come from different tables or passages of the source.

Sequence of FhuA ΔC/Δ7L_30N (P06971 194-747, stated change not applied): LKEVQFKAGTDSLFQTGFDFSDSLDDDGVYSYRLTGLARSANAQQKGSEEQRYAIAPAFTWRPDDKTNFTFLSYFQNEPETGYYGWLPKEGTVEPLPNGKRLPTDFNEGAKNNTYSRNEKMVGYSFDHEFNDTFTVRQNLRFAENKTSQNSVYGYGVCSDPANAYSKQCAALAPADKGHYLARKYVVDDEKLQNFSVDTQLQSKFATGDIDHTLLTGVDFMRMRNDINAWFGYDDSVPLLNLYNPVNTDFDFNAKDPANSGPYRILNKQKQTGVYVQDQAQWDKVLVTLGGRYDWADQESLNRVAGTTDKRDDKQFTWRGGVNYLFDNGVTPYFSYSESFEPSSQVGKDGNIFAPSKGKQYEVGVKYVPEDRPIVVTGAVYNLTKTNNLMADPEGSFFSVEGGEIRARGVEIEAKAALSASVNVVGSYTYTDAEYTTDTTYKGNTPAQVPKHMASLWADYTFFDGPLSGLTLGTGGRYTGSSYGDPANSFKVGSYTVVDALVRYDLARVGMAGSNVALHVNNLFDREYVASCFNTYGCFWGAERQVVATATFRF
Sequence of FhuA ΔC/Δ5L_25N (P06971 194-747, stated change not applied): as above
Sequence of FhuA ΔC/Δ5L (P06971 194-747, stated change not applied): as above
Sequence of OmpG (P76045 22-301 D245C): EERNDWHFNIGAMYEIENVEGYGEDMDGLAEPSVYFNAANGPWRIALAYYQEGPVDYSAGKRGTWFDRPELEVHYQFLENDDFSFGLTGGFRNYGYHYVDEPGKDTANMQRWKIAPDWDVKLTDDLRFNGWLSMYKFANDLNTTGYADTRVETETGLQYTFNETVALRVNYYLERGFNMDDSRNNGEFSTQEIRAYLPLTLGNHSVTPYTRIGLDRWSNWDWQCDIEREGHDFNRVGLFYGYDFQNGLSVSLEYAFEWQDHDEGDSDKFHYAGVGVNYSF

On to `CCCCCCCCO[C@@H]1O[C@H](CO)[C@@H](O)[C@H](O)[C@H]1O` [OG, n-octyl-β-D-glucoside], for which the rmax at FhuA ΔC/Δ7L_30N (setting [1]) is on record as about 0.17; at FhuA ΔC/Δ5L (setting [1]), 0.291 ± 0.002; on OmpG (setting [1]), 0.306 ± 0.001; on FhuA ΔC/Δ5L_25N (setting [1]) it was about 0.17. The rmin is listed as about 0.15 on FhuA ΔC/Δ7L_30N (setting [2]), 0.162 ± 0.002 on FhuA ΔC/Δ5L (setting [2]), 0.153 ± 0.002 at OmpG (setting [2]) and about 0.15 at FhuA ΔC/Δ5L_25N (setting [2]). The Dr fast at FhuA ΔC/Δ7L_30N (setting [3]) is ~6.6 10^7 s^−1; at FhuA ΔC/Δ5L (setting [3]) it was 5.8 ± 0.1 10^7 s^−1; on OmpG (setting [3]) it was 6.4 ± 0.1 10^7 s^−1; on FhuA ΔC/Δ5L_25N (setting [3]), ~6.6 10^7 s^−1. The Dr slow is ~5.2 10^7 s^−1 at FhuA ΔC/Δ7L_30N (setting [4]), 1.5 ± 0.1 10^7 s^−1 on FhuA ΔC/Δ5L (setting [4]), 1.2 ± 0.1 10^7 s^−1 at OmpG (setting [4]) and ~5.2 10^7 s^−1 on FhuA ΔC/Δ5L_25N (setting [4]). For the same compound, at FhuA ΔC/Δ5L (acidic FhuA proteins refolded in detergent), the anisotropy signal is recorded as ~ 0.3. The “q (slope factor or transition steepness)” value was 0.013 mM⁻¹ on FhuA ΔC/Δ5L (setting [5]) and 0.017 mM⁻¹ at OmpG (setting [5]). In addition, the ΔRh on FhuA ΔC/Δ5L (setting [6]) is 0.80 ± 0.02 nm; on OmpG (setting [6]) it was 1.0 ± 0.1 nm. The figures for the “p (Hill coefficient)” value on FhuA ΔC/Δ5L (setting [7]) and on OmpG (setting [7]) were 5.3 ± 0.9 and 4.9 ± 0.5, respectively. Moreover, the Rh max at FhuA ΔC/Δ5L (setting [8]) is on record as 2.2 nm; on OmpG (setting [8]), 2.4 nm. Also, the results for the Kd at FhuA ΔC/Δ5L (setting [9]) and at OmpG (setting [9]) were 13 ± 1 mM and 11 ± 1 mM, respectively. The ΔG on FhuA ΔC/Δ5L (ΔG = RT ln Kd) is -2.5 ± 0.1 kcal/mol; on OmpG (ΔG = RT ln Kd), -2.7 ± 0.1 kcal/mol.

At FhuA ΔC/Δ5L (setting [10]), `Cl.N=C(N)N` [Gdm-HCl, guanidinium hydrochloride] registered a rmax of about 0.16 and a rmin of about 0.16. In addition, at FhuA ΔC/Δ5L (fully unfolded, most rotationally diffusive protein in 6 M Gdm-HCl), the “basal (minimum) anisotropy readout, r1” value is 0.16 and ~ 0.16. Moreover, at FhuA ΔC/Δ5L (in 6 M Gdm-HCl), the Dr fast is given as ~6.0 10^7 s^−1, the Dr slow is on record as ~6.0 10^7 s^−1 and the Rh max is listed as 1.4 nm.

With `CCCCCCCCCCCCOS(=O)(=O)[O-].[Na+]` [SDS], on FhuA ΔC/Δ5L (in 40 mM SDS), the “minimum anisotropy value, r0” value was ~ 0.16.
